Measurements published in patent US20200172491A1, “SUBSTITUTED 5-(HET-)ARYLPYRAZOLAMIDES AND SALTS THEREOF AND THEIR USE AS HERBICIDAL ACTIVE SUBSTANCES” (Bayer CropScience Aktiengesellschaft, priority 2017, published 2020).

Legend:
Type in all cases: in vivo
Amaranthus retroflexus [1] = experiment: Post-emergence herbicidal action; settings: 320 g/ha, rated after about 3 weeks, 100% = plants have died, 0% = like control plants
Method: (§1) Seeds of monocotyledonous and dicotyledonous weeds and crop plants were placed in sandy loam in plastic or wood-fiber pots, covered with soil and cultivated in a greenhouse under controlled growth conditions. 2 to 3 weeks after sowing, the test plants were treated at the one-leaf stage. The compounds of the invention, formulated in the form of wettable powders (WP) or as emulsion concentrates (EC), were then sprayed onto the green parts of the plants as aqueous suspension or emulsion with addition of 0.5% additive at a water application rate of 600 l/ha (converted). After the test plants had been kept in the greenhouse under optimum growth conditions for about 3 weeks, the activity of the preparations was rated visually in comparison to untreated controls. For example, 100% activity=the plants have died, 0% activity=like control plants. Tables B1 to B6 below show the effects of selected compounds of the general formula (I) according to Table A1 at an application rate of 320 g/ha on various harmful plants, which were obtained by the aforementioned experimental procedure.

Ipomoea purpurea = experiment: Post-emergence herbicidal action; settings: 320 g/ha, rated after about 3 weeks, 100% = plants have died, 0% = like control plants
Method: as §1

Matricaria inodora [2] = experiment: Post-emergence herbicidal action; settings: 320 g/ha, rated after about 3 weeks, 100% = plants have died, 0% = like control plants
Method: as §1

Stellaria media [3] = experiment: Post-emergence herbicidal action; settings: 320 g/ha, rated after about 3 weeks, 100% = plants have died, 0% = like control plants
Method: as §1

Viola tricolor [4] = experiment: Post-emergence herbicidal action; settings: 320 g/ha, rated after about 3 weeks, 100% = plants have died, 0% = like control plants
Method: as §1

Amaranthus retroflexus [5] = experiment: Pre-emergence herbicidal action; settings: 320 g/ha, scored after about 3 weeks, 100% = plants have died, 0% = like control plants
Description: (§2) Seeds of monocotyledonous and dicotyledonous weed plants and crop plants were placed in plastic or wood-fiber pots and covered with soil. The compounds of the invention, formulated in the form of wettable powders (WP) or as emulsion concentrates (EC), were then applied to the surface of the covering soil as aqueous suspension or emulsion with addition of 0.5% additive at a water application rate equivalent to 600 l/ha. After the treatment, the pots were placed in a greenhouse and kept under good growth conditions for the test plants. After about 3 weeks, the effect of the preparations is scored visually in comparison with untreated controls as percentages. For example, 100% activity=the plants have died, 0% activity=like control plants. Tables B7 to B11 below show the effects of selected compounds of the general formula (I) according to Table A1 at an application rate of 320 g/ha on various harmful plants, which were obtained by the aforementioned experimental procedure.

Matricaria inodora [6] = experiment: Pre-emergence herbicidal action; settings: 320 g/ha, scored after about 3 weeks, 100% = plants have died, 0% = like control plants
Description: as §2

Stellaria media [7] = experiment: Pre-emergence herbicidal action; settings: 320 g/ha, scored after about 3 weeks, 100% = plants have died, 0% = like control plants
Description: as §2

Veronica persica = experiment: Pre-emergence herbicidal action; settings: 320 g/ha, scored after about 3 weeks, 100% = plants have died, 0% = like control plants
Description: as §2

Viola tricolor [8] = experiment: Pre-emergence herbicidal action; settings: 320 g/ha, scored after about 3 weeks, 100% = plants have died, 0% = like control plants
Description: as §2

| SMILES | herbicidal activity on Amaranthus retroflexus (visual rating vs untreated controls) (Amaranthus retroflexus [1]) [%] | herbicidal activity on Ipomoea purpurea (visual rating vs untreated controls) (Ipomoea purpurea) [%] | herbicidal activity on Matricaria inodora (visual rating vs untreated controls) (Matricaria inodora [2]) [%] | herbicidal activity on Stellaria media (visual rating vs untreated controls) (Stellaria media [3]) [%] | herbicidal activity on Viola tricolor (visual rating vs untreated controls) (Viola tricolor [4]) [%] | herbicidal activity on Amaranthus retroflexus (visual rating vs untreated controls) (Amaranthus retroflexus [5]) [%] | herbicidal activity on Matricaria inodora (visual rating vs untreated controls) (Matricaria inodora [6]) [%] | herbicidal activity on Stellaria media (visual rating vs untreated controls) (Stellaria media [7]) [%] | herbicidal activity on Veronica persica (visual rating vs untreated controls) (Veronica persica) [%] | herbicidal activity on Viola tricolor (visual rating vs untreated controls) (Viola tricolor [8]) [%] |
| --- | --- | --- | --- | --- | --- | --- | --- | --- | --- | --- |
| Cc1nn(C)c(-c2ccc(F)cc2Cl)c1C(=O)Nc1cccc(Cl)c1 [I-001] | 100 | 100 | 90 | 100 | 100 | 100 | 100 | 100 | 100 | – |
| Cc1nn(C)c(-c2ccc(F)cc2Cl)c1C(=O)Nc1ccccc1 [I-002] | 100 | 80 | 100 | 100 | 100 | 100 | 100 | 100 | – | 100 |
| Cc1nn(C)c(-c2ccc(F)cc2Cl)c1C(=O)NC1CCCC1 [I-003] | 100 | – | – | – | – | – | 90 | 80 | – | – |
| Cc1nn(C)c(-c2ccc(F)cc2Cl)c1C(=O)Nc1ccccc1F [I-006] | 100 | – | – | 100 | 100 | 100 | 90 | 100 | – | 100 |
| Cc1nn(C)c(-c2ccc(F)cc2Cl)c1C(=O)Nc1ccc(F)cc1 [I-007] | 100 | – | – | 80 | – | 90 | – | 100 | – | – |
| Cc1ccc(Cl)cc1NC(=O)c1c(C)nn(C)c1-c1ccc(F)cc1Cl [I-009] | 100 | 100 | 100 | 100 | 100 | 100 | 100 | 100 | 100 | – |
| Cc1cccnc1NC(=O)c1c(C)nn(C)c1-c1ccc(F)cc1Cl [I-010] | 100 | – | – | 100 | 100 | 100 | 100 | – | – | – |
| Cc1nn(C)c(-c2ccc(F)cc2Cl)c1C(=O)Nc1ncccc1F [I-011] | 90 | – | – | 80 | – | 80 | – | 80 | – | – |
| Cc1nn(C)c(-c2ccc(F)cc2Cl)c1C(=O)Nc1c(Cl)cccc1Cl [I-013] | 100 | 100 | 100 | 100 | 100 | 100 | 100 | 100 | 100 | – |
| Cc1nn(C)c(-c2cc(F)ccc2Cl)c1C(=O)Nc1c(Cl)cccc1Cl [I-014] | 80 | – | – | 90 | 100 | – | – | – | – | – |
| Cc1nn(C)c(-c2ccc(F)cc2Cl)c1C(=O)Nc1cc(Cl)ccc1Cl [I-017] | 100 | – | – | 100 | 90 | 100 | 80 | – | – | – |
| Cc1nn(C)c(-c2ccc(F)cc2Cl)c1C(=O)NC1CCCCC1 [I-018] | 80 | – | – | – | – | – | – | – | – | – |
| Cc1nn(C)c(-c2ccc(F)cc2Cl)c1C(=O)Nc1cc(Cl)cc(Cl)c1 [I-020] | 100 | – | – | – | 100 | 100 | 100 | 90 | – | 80 |
| Cc1nn(C)c(-c2ccc(F)cc2Cl)c1C(=O)Nc1cc(Cl)ccc1F [I-021] | 100 | – | – | 100 | 100 | 100 | 100 | 100 | – | 100 |
| Cc1nn(C)c(-c2ccc(F)cc2Cl)c1C(=O)Nc1ccc(F)nc1 [I-023] | 90 | – | – | 100 | – | – | 90 | 100 | – | – |
| Cc1nn(C)c(-c2ccc(F)cc2Cl)c1C(=O)Nc1ccc(Cl)cc1 [I-024] | 100 | – | – | 100 | 100 | – | – | – | – | – |
| Cc1nn(C)c(-c2ccc(F)cc2Cl)c1C(=O)Nc1c(F)cc(F)cc1F [I-025] | 100 | 80 | 100 | 90 | 100 | 100 | 100 | 100 | – | 100 |
| CCn1nc(C)c(C(=O)Nc2c(Cl)cccc2Cl)c1-c1ccc(F)cc1Cl [I-026] | 90 | – | – | – | 80 | – | – | – | – | – |
| Cc1nn(C)c(-c2ccc(F)cc2Cl)c1C(=O)Nc1cccnc1F [I-031] | 100 | – | – | 100 | 100 | 100 | 100 | 90 | – | 80 |
| Cc1nn(C)c(-c2ccc(F)cc2Cl)c1C(=O)Nc1cncc(F)c1 [I-032] | 100 | 90 | 100 | 100 | 100 | 100 | 100 | – | – | – |
| Cc1nn(C)c(-c2ccc(F)cc2)c1C(=O)Nc1c(Cl)cccc1Cl [I-033] | 80 | – | – | – | 80 | – | – | – | – | – |
